Measured values taken from PMC11522085, “Studies on the mechanisms of action of MR33317” (Naunyn-Schmiedeberg's Archives of Pharmacology, 2024).

Target: T1, 5-HT4-receptor (5-HT4B membrane preparations) (Homo sapiens, UniProt Q13639)
T1 construct: gene HTR4; 5-HT4B membrane preparations (HTS110M, Millipore), recombinant
Experiment: radioligand-type competition binding on recombinant 5-HT4B membranes (filtration); partial agonist in cAMP assay
Source text: radioligand-type competition binding on recombinant 5-HT4B membranes (filtration); partial agonist in cAMP assay on 5-HT4-receptor (5-HT4B membrane preparations) | MR33317 bound with high affinity to recombinant 5-HT4-receptor.

T1 sequence (Q13639 whole entry): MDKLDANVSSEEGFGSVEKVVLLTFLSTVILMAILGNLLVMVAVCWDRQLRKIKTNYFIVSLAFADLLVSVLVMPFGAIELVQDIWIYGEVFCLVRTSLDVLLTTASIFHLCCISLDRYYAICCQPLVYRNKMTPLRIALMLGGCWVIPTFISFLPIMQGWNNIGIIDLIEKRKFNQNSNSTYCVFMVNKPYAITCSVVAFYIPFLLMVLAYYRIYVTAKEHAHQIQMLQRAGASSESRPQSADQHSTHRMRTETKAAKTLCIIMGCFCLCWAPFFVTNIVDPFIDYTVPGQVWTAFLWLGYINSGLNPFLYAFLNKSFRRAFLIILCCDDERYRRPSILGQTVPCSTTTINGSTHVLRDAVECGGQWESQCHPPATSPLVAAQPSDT

COc1cc(N)c(Cl)cc1C(=O)CCC1CCN(Cc2cccc(N)c2)CC1 [MR33317]
Ki: 42.5 ± 2.6 nM
